In the first series the test system is CC(=O)SCC[N+](C)(C)C. Kind of series: modified Ellman assay. It counts as biochemical, Phlebotomus papatasi. On the technique in general: In Ellman's method for cholinesterases, released thiocholine reacts with DTNB.
As a reminder, the Km is the concentration of substrate that gives half-maximal velocity. For rPpAChE1 (Phlebotomus papatasi), the Km is 24 µM.

A further series deals with T1, rPpAChE1 (Phlebotomus papatasi, UniProt M1F887).
T1 construct: gene AChE; cell lysate assayed
Kind of series: biochemical.
A word on the IC50: it is the concentration needed to halve the response being measured. Low readings indicate greater potency, high ones weaker potency. In the case of `CNC(=O)Oc1ccc2c(c1)[C@]1(C)CCN(C)[C@@H]1N2C` [Eserine], the IC50 was determined as 3.2 nM.

As to `CCC(C)n1cc(OC(=O)NC)cn1` (stereo not drawn) [compound 3, 1-(sec-butyl)-1H-pyrazol-4-yl methylcarbamate], it took 13 nM to reach half-maximal inhibition (IC50).

For the compound `CNC(=O)Oc1cnn(CCC(C)C)c1` [compound 4, 1-isopentyl-1H-pyrazole-4-yl methylcarbamate], half-maximal inhibition (IC50) was put at 75 nM.

`CC[n+]1c(-c2ccccc2)c2cc(N)ccc2c2ccc(N)cc21` [Ethidium Bromide]: the IC50 was 17100 nM.

In turn, `CNC(=O)Oc1ccccc1OC(C)C` [Propoxur] yielded an IC50 of 220 nM.

On to `CNC(=O)Oc1cccc(C(C)(C)C)c1` [compound 2, 3-(tert-butyl)phenyl methylcarbamate], for which it took 36 nM to reach half-maximal inhibition (IC50).

`CCOC(=O)CC(SP(=O)(OC)OC)C(=O)OCC` (stereo not drawn) [Malaoxon] gave an IC50 of 4.36 nM.

The compound `Nc1c2c(nc3ccccc13)CCCC2` [Tacrine] showed an IC50 of 67 nM.

Take `COc1cc2c3cc1Oc1cc(ccc1O)C[C@@H]1c4c(cc(OC)c(O)c4Oc4ccc(cc4)C[C@@H]3N(C)CC2)CC[N+]1(C)C` [Tubocurarine]: the IC50 is 143000 nM.

Consider `CNC(=O)Oc1cccc2c1OC(C)(C)C2` [Carbofuran], for which the IC50 was 24 nM.

`CNC(=O)Oc1cnn(CC(C)C)c1` [compound 5, 1-isobutyl-1H-pyrazol-4-yl methylcarbamate] came in with an IC50 of 76 nM.

The record behind these values is publication PMC4268798, “Acetylcholinesterase of the sand fly, Phlebotomus papatasi (Scopoli): construction, expression and biochemical properties of the G119S orthologous mutant” (Parasites & Vectors, 2014).
